Laboratory results published in patent US20250206789A1, “ZINC FINGER DEGRON SEQUENCES” (STICHTING HET NEDERLANDS KANKER INSTITUUT-ANTONI VAN …, priority 2022, published 2025).

Test system: Jurkat cells
Experiment: SynFinger library screen: CD69 expression of CRASH-IT (Zap70-PD1-degron) transduced Jurkat cells with or without lenalidomide, enrichment index from NGS reads
Type: cell-based
Set-up: key to EI / EI index (enrichment index): enrichment index; low EI = SynFinger with desired properties
Details: Table 6; dual substitutions in first hybrid zinc finger domain; Jurkat, 50 nM lenalidomide vs mock, CD69-HI/CD69-LO; low EI = desired
Excerpt: […] Jurkat cells were transduced with the SynFinger library (SynFinger containing CRASH-IT switches) at a 12.8% transduction efficiency and sorted for high EGFP expression to enrich transduced cells. For quality control of the SynFinger transduced Jurkat cells, SynFinger sequences were amplified and analyzed by NGS. 10 randomly selected SynFinger encoding DNA sequences or DNA sequences encoding the same SynFinger amino acid sequences but contain 2 nucleotide mismatches due to alternative codon usage were used to assess ability to distinguish true SynFinger sequences from noise in the NGS data. 10/10 SynFinger encoding full-nucleotide sequence match sequences were observed within NGS data whereas the 2 nucleotide mismatch containing sequences were not detected.
Jurkat cells expressing the SynFinger library were treated with 50 nM lenalidomide (a suboptimal dose that activates only ˜50% of cells expressing a CRASH-IT switch containing the parental double hybrid degron in Jurkat cells, as compared to a maximally effective 1000 nM lenalidomide dose) or were mock treated for 24 hours, and subsequently activated with anti-CD3/anti-CD28 antibodies in the presence or absence of 50 nM lenalidomide for 5 hours. Afterwards, cells were stained with IR dye (1:400) and anti-CD69-PE (1:200). Cells were sorted for live (IR dye negative), EGFP high end CD69 high (top 5%) or CD69 low (bottom 5%) expression using Aria Fusion cytometers.
Subsequently, cells were washed with PBS, and cell pellets were frozen at −20° C. until DNA extraction. Genomic DNA was isolated using the DNeasy Blood & Tissue Kit (Qiagen) according to the manufacturer's instructions, using 5×10^6 cells per column. DNA was eluted in 22 μl RNAse free water. Deep sequencing adapters and indexes were added to SynFinger encoding DNA sequences using PCR amplification. Briefly, 3 μg genomic DNA (20 μl), indexed forward and reverse primers (10 μM, 2.5 μl each) and 25 μl NEBNext® High-Fidelity 2×PCR Master Mix were added to the PCR reaction. An optimized PCR reaction (98° C. for 30 s, (98° C. for 10 s, 56° C. for 10 s, 72° C. for 5 s)×25 cycles, 72° C. for 3 min was performed using Eppendorf PCR cyclers.
Indexed PCR products were run on agarose gel, relative DNA concentrations were estimated by measuring band intensity, and 12 indexed PCR reaction products were mixed per MiSeq chip. To increase sequence diversity, samples were mixed with 25% PhiX DNA. In total, 2 MiSeq chips were used (100 bp, single read). To distinguish genuine SynFinger sequences from sequencing errors, results were filtered using a reference list of actual sequences used in SynFinger library design (100% codon match). Sequences with a very low number of reads (sum of all samples below 500 reads) were excluded from analysis.
To identify SynFingers that improve sensitivity of CRASH-IT switches towards lenalidomide while preserving or improving stringency of switch mediated control of T cell activation in the absence of lenalidomide, an enrichment index (EI) value was calculated for each sequence as described below, and SynFingers were ranked according to their EI, with a low EI indicating a SynFinger with desired properties.
CD69-HI and […] read counts from top 100 SynFingers were compared with read counts from the parental double hybrid degron using a two-sided Fisher's exact test to determine enrichment of CD69-HI cells in the presence of lenalidomide and enrichment of CD69-LO cells in the absence of lenalidomide.
To further improve the sensitivity of double hybrid degron towards IMiDs, we performed a high throughput screen using a library of ˜50,200 CRASH-IT variants that encode either single or double amino acid substitutions at the indicated positions of the first hybrid zinc finger sequence, thereby changing 18 amino acids of this zinc finger into any amino acid except cysteine (FIG. 3). […]

Row | Substance | EI index (enrichment index)
1 | 10 (LQCWICGFTCRQKGNLLRHIYLH) [compound 10] | 0.00695
2 | 88 (LQCEICGFRCRQKGNLLRHIKKH) [compound 88] | 0.03947
3 | 84 (LQCEICGFTCRQKGKYLRHIKLH) [compound 84] | 0.03903
4 | 22 (LQCKICGFTSRQKGNLLRHIKLH) [compound 22] | 0.01311
5 | 17 (LQCIICGFTCRQKGNLLKHIKLH) [compound 17] | 0.0108
6 | 32 (LQCEICGFTCRQEKNLLRHIKLH) [compound 32] | 0.01693
7 | 55 (LQCEICGFTCRQKFKLLRHIKLH) [compound 55] | 0.0247
8 | 21 (LQCEICGFSCRQKGNLRRHIKLH) [compound 21] | 0.01255
9 | 37 (FQCEICGFTCRQKHNLLRHIKLH) [compound 37] | 0.01787
10 | 35 (LQCEICGFTARRKGNLLRHIKLH) [compound 35] | 0.01754
11 | 94 (MQCVICGFTCRQKGNLLRHIKLH) [compound 94] | 0.04229
12 | 97 (LQCEICGFTCRKKVNLLRHIKLH) [compound 97] | 0.04294
13 | 56 (LQCKICGFTCRHKGNLLRHIKLH) [compound 56] | 0.02543
14 | 43 (FQCEICGFTCRQKGRLLRHIKLH) [compound 43] | 0.01977
15 | 51 (LQCEICGFTCRQKKNLLRHISLH) [compound 51] | 0.02309
16 | 16 (LQCEICGFTCRRKGNLYRHIKLH) [compound 16] | 0.0107
17 | 50 (LQCEICGFTCRNKKNLLRHIKLH) [compound 50] | 0.02307
18 | 47 (LQCEICGFTCRQKGTLLRHIKRH) [compound 47] | 0.02209
19 | 54 (LQCEICGFTCRQKGNLLVHIALH) [compound 54] | 0.02408
20 | 29 (LQCEICGFTCRQVGWLLRHIKLH) [compound 29] | 0.01609
21 | 66 (LQCVICGFTCRQKGNLVRHIKLH) [compound 66] | 0.02989
22 | 76 (LQCQICGFTCRRKGNLLRHIKLH) [compound 76] | 0.03445
23 | 38 (LQCEICGYTCRKKGNLLRHIKLH) [compound 38] | 0.01794
24 | 46 (LQCEICGFTCRQKGNLYRHYKLH) [compound 46] | 0.021

Row | Substance | EI index (enrichment index)
25 | 99 (LQCEICGFTCRQKGNLLRHINNH) [compound 99] | 0.04339
26 | 67 (LQCEICGFTCRQQLNLLRHIKLH) [compound 67] | 0.0303
27 | 36 (YQCVICGFTCRQKGNLLRHIKLH) [compound 36] | 0.01769
28 | 71 (LQCEICGFTCRKKNNLLRHIKLH) [compound 71] | 0.03227
29 | 70 (LQCWICGFTCRQKMNLLRHIKLH) [compound 70] | 0.03192
30 | 52 (FQCEICGFTCRQKRNLLRHIKLH) [compound 52] | 0.0231
31 | 19 (LQCEICGFTCRLKGNLLRHILLH) [compound 19] | 0.01177
32 | 33 (LQCDICGFTCRQKGNLLLHIKLH) [compound 33] | 0.01705
33 | 8 (LQCEICGFTCRQLGNLLWHIKLH) [compound 8] | 0.006187
34 | 60 (LQCEICGFTCRQWGNYLRHIKLH) [compound 60] | 0.02739
35 | 95 (LQCLICGFTCRQKGNLLRHIRLH) [compound 95] | 0.04285
36 | 1 (LQCRICGFTCRLKGNLLRHIKLH) [compound 1] | 0
37 | 49 (LQCEICGFTCRRKGSLLRHIKLH) [compound 49] | 0.02268
38 | 12 (IQCEACGFTCRQKGNLLRHIKLH) [compound 12] | 0.008564
39 | 3 (LQCEICGFTCRRKGNLMRHIKLH) [compound 3] | 0.003725
40 | 41 (LQCEVCGFTCRKKGNLLRHIKLH) [compound 41] | 0.01944
41 | 82 (LQCMICGFTCRQKGNLMRHIKLH) [compound 82] | 0.03754
42 | 80 (LQCEICGFTCRQPGNLLRHYKLH) [compound 80] | 0.03685
43 | 72 (YQCEICGFTCRQKGNLLRHIILH) [compound 72] | 0.03275
44 | 87 (LQCEICGFTCRQKQRLLRHIKLH) [compound 87] | 0.0394
45 | 77 (LQCEICGFTCRKRGNLLRHIKLH) [compound 77] | 0.03531
46 | 65 (LQCEICGFTCRQKGNLLRHIFKH) [compound 65] | 0.02989
47 | 15 (LQCLICGFTCRRKGNLLRHIKLH) [compound 15] | 0.01014
48 | 79 (LQCEICGFTCRKKGNLLRHIILH) [compound 79] | 0.03569

Row | Substance | EI index (enrichment index)
49 | 23 (LQCEICGFTCRKKGALLRHIKLH) [compound 23] | 0.0133
50 | 25 (LQCKICGFTCRQMGNLLRHIKLH) [compound 25] | 0.01383
51 | 61 (WQCEICGFTCRQYGNLLRHIKLH) [compound 61] | 0.0276
52 | 78 (LQCNICGFTCRQLGNLLRHIKLH) [compound 78] | 0.03544
53 | 44 (LQCEICGFTCRQKANLKRHIKLH) [compound 44] | 0.02064
54 | 69 (LQCEICGFTCRQKGNLDRHIKRH) [compound 69] | 0.03188
55 | 73 (LQCHICGFTSRQKGNLLRHIKLH) [compound 73] | 0.03303
56 | 20 (LQCKICGFTCRVKGNLLRHIKLH) [compound 20] | 0.01216
57 | 9 (LQCEICGFTCRRVGNLLRHIKLH) [compound 9] | 0.006877
58 | 34 (LQCEICGFTCRQKYNLLRHISLH) [compound 34] | 0.01723
59 | 6 (LQCEICGFTCRQKNNLLRHIALH) [compound 6] | 0.004719
60 | 42 (LQCEICGFTCRRKGNLLRHRKLH) [compound 42] | 0.01965
61 | 30 (LQCMICGFTFRQKGNLLRHIKLH) [compound 30] | 0.01673
62 | 26 (FQCEICGFTCRQKVNLLRHIKLH) [compound 26] | 0.01478
63 | 96 (LQCEICGFTCRQKLNLLRHIKRH) [compound 96] | 0.04285
64 | 28 (LQCEICGFTCRRKGNLLRHIKHH) [compound 28] | 0.01589
65 | 45 (LQCIICGFTCRQKGNLWRHIKLH) [compound 45] | 0.0209
66 | 92 (LQCEICGFTCRQLRNLLRHIKLH) [compound 92] | 0.04129
67 | 18 (LQCAICGFTSRQKGNLLRHIKLH) [compound 18] | 0.01133
68 | 48 (LQCEICGFTCRKKGNLLRHKKLH) [compound 48] | 0.02219
69 | 53 (LQCEICGFTCRQKGNLLRHYKTH) [compound 53] | 0.02363
70 | 81 (LQCEICGFTCRQDGRLLRHIKLH) [compound 81] | 0.03726
71 | 7 (LQCEICGFTCRQKNNLLRHIKRH) [compound 7] | 0.004969

Same assay, conditions: single mutation vs dual substitution L1Y/E4V; higher EI = less sensitive to IMiD

Row | Substance | EI value, times higher as compared to SEQ ID. NO 36
72 | YQCEICGFTCRQKGNLLRHIKLH [SEQ ID NO: 108, first hybrid zinc finger domain with only one mutation, substitution L1Y] | 10-15 times

Same assay, conditions: single mutation vs dual substitution; higher EI = less sensitive to IMiD

Row | Substance | EI value, times higher as compared to SEQ ID. NO 100
73 | YQCEICGFTCRQKGNLLRHIKLH [SEQ ID NO: 108, first hybrid zinc finger domain with only one mutation, substitution L1Y] | at least 5 times
